According to article PMC8353992 (Journal of medicinal chemistry, 2021):

Target: SARS-CoV-2 3CL^pro (Severe acute respiratory syndrome coronavirus 2, UniProt P0DTD1)
Format: biochemical

| SMILES | primary biochemical potency |
| --- | --- |
| O=C(Cc1cccnc1)N(Cc1cccc(Cl)c1)c1ccc(-c2cn[nH]c2)cc1 [Compound 42, N-[(3-Chlorophenyl)methyl]-N-[4-(1H-pyrazol-4-yl)phenyl]-2-(3-pyridyl)acetamide] | micromolar levels |
| O=C(Cc1cncnc1)N(Cc1cccc(Cl)c1)c1ccc(-c2cn[nH]c2)cc1 [Compound 43, N-[(3-Chlorophenyl)methyl]-N-[4-(1H-pyrazol-4-yl)phenyl]-2-pyrimidin-5-yl-acetamide] | micromolar levels |
